Laboratory results reported in patent publication US9399631B2, “Polyphenol proteasome inhibitors, synthesis, and methods of use” (UNIVERSITY OF SOUTH FLORIDA, priority 2003, dated 2016).
pIC50: −log10 of the molar value.

Legend:
[1] = tested on: LNCaP cells; assay: Flow cytometry cell cycle analysis, LNCaP cells; format: cell-based, human; details: 10 μM, 24 hours
Description: (§1) Flow Cytometry. Cell cycle analysis based on DNA content was performed as in An et al. (An, B. et al. Cell Death Differ, 1998, 5:1062-75). At each time point, cells were harvested, counted, and washed twice with PBS. Cells (5×10^6) were suspended in 0.5 ml PBS, fixed in 5 ml of 70% ethanol overnight at −20° C., centrifuged, resuspended again in 1 ml of propidium iodide staining solution (50 μg propidium iodide, 100 units RNase A and 1 mg glucose per ml PBS), and incubated at room temperature for 30 minutes. The cells were then analyzed with FACScan (Becton Dickinson Immunocytometry, Calif.), ModFit LT and WinMDI V.2.8 cell cycle analysis software (Verity Software; Topsham, Me.). The cell cycle distribution is shown as the percentage of cells containing G1, S, G2, and M phase DNA judged by propidium iodide staining The apoptotic population is determined as the percentage of cells with sub-G1 DNA content (<G1).
It has been shown that overexpression of p27 and IκB-α results in G1 arrest. If increased levels of these proteasome target proteins by synthetic GTPs are functional, it would be expected to see growth arrest of tumor cells in G1 phase. To test this hypothesis, asynchronous prostate LNCaP cells were treated with 10 μM of synthetic (+)-EGCG or (+)-GCG, along with each respective natural GTP as control, for 24 hours. Cells were then harvested, and analyzed by cell cycle analysis by flow cytometry. […] Growth arrest was determined by the increase in the percentage of the G1 population.

[2] = tested on: LNCaP cells; assay: Soft agar colony formation assay; format: cell-based, human; details: 10 μM, 14 day-incubation
Description: Soft Agar Assay. The soft agar assay was performed according to Smith et al. (Smith, D. M. et al. Mol Med, 2002, 8:382-392) with a few modifications. In brief, in a six-well plate, a bottom feeder layer (0.6% agar) was prepared with DMEM media containing 10% fetal bovine serum, 100 units/ml penicillin, and 100 μg/ml streptomycin. A top layer (0.3% agar) was prepared with DMEM and the same media as described above but containing 2×10^4 prostate cancer LNCaP cells and indicated analogs or DMSO as a control. Plates were incubated at 37° C. in 5% CO2 in a humidified incubator for two weeks. MTT (1 mg/ml) was added to each well and incubated overnight to allow complete formation of purple formazan crystals. The plates were then scanned and photographed, and the number of colonies was quantified by QUANTITY ONE v.4.0.3 software (Bio-Rad, Hercules, Calif.).
The […] effects of several GTP analogs were investigated with a soft agar assay that measures the transforming activity of human tumor cells. LNCaP cells were plated in soft agar (see Materials and Methods) along with 50 μM of GTP-1, -2, -3, (−)-EGCG (as a positive control; Smith, D. M. et al. Mol Med, 2002, 8:382-392, 2002), or the solvent (as a negative control), followed by a 14 day-incubation to allow for colony formation (FIGS. 12A and 12B).
In a second experiment, LNCaP cells were plated in soft agar along with 10 μM of each indicated GTP or solvent (H2O), followed by a 14 day-incubation to allow for colony formation (FIG. 21A). […] Colonies were quantified with an automated counter and presented as mean values from triplicate independent experiments. Error bars denote standard deviations.

[3] = target: T1, 20S eukaryotic proteasome (Oryctolagus cuniculus, UniProt G1T4Q9); assay: Inhibition of chymotrypsin-like activity of purified eukaryotic 20S proteasome (Suc-Leu-Leu-Val-Tyr-AMC); format: biochemical, rabbit; details: chymotrypsin-like activity, rabbit 20S proteasome
T1 construct: purchased BOSTON BIOCHEM (Cambridge, Mass.)
T1 sequence (G1T4Q9 1-263): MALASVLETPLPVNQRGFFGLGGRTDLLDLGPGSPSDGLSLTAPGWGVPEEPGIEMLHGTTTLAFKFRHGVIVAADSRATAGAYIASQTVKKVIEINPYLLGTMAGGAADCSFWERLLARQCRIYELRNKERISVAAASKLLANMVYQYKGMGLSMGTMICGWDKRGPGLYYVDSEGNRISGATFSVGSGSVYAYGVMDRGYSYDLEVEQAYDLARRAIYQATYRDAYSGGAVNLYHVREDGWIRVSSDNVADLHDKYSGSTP
Description: Materials. Highly purified tea polyphenols (−)-EGCG (>95%), (−)-GCG (>98%), (−)-ECG (>98%), (−)-CG (>98%), fetal calf serum, propidium iodide, 3-[4,5-dimethylthiazol-2-yl]-2,5-diphenyltetrazolium bromide (MTT), RNase A, and DMSO were purchased from Sigma (St. Louis, Mo.). (+)-EGCG, benzyl-protected-(+)-EGCG, (+)-GCG, (−)-EGCG-amide, and (+)-EGCG-amide were prepared by enantioselective synthesis (see below). Purified 20S eukaryotic proteasome from rabbit was purchased from BOSTON BIOCHEM (Cambridge, Mass.). Purified 20S prokaryotic proteasome (Methanosarcina thermophile, Recombinant, E. coli) was purchased from CALBIOCHEM (La Jolla, Calif.). Fluorogenic peptide substrates Suc-Leu-Leu-Val-Tyr-AMC (for the proteasomal chymotrypsin-like activity) was obtained from Calbiochem (La Jolla, Calif.). RPMI 1640 medium, Dulbecco's modified Eagle's medium, MEM non-essential amino acids solution, MEM-sodium pyruvate solution, penicillin, and streptomycin were from INVITROGEN (Carlsbad, Calif.). Monoclonal antibody to p27^Kip was purchased from PHARMINGEN (San Diego, Calif.); polyclonal antibodies to IκB-α, Bax and actin, and monoclonal antibody to ubiquitin were from SANTA CRUZ Biotechnology Inc. (Santa Cruz, Calif.).
(§2) Inhibition of purified 20S proteasome activity by natural or synthetic GTPs. Purified prokaryotic (0.5 μg) or eukaryotic (0.02 μg) 20S proteasome was incubated with 20 μM fluorogenic peptide substrate, Suc-Leu-Leu-Val-Tyr-AMC for 30 min at 37° C. in […] of assay buffer (50 mM Tris-HCl, pH 7.5), with or without a natural or synthetic tea polyphenol. After incubation, production of hydrolyzed 7-amido-4-methyl-coumarin (AMC) groups was measured using a multi-well plate VERSAFLUOR Fluorometer with an excitation filter of 380 nm and an emission filter of 460 nm (BIO-RAD), and a multi-well plate reader Wallac 1420 VICTORTM^2 with an excitation filter of 355 nm and an emission filter of 460 nm (EG&G WALLAC).
Purified prokaryotic (0.5 μg) or eukaryotic (0.02 μg) 20S proteasome was incubated with 20 μM fluorogenic peptide substrate, Suc-Leu-Leu-Val-Tyr-AMC for 30 minutes at 37° C. in 100 μl of assay buffer ([…] Tris-HCl, pH 7.5), with or without a natural or synthetic tea polyphenol. After incubation, production of hydrolyzed AMC groups was measured using a multi-well plate VERSAFLUOR Fluorometer with an excitation filter of 380 nm and an emission filter of 460 nm.
(−)-EGCG at 1 μM was incubated with eukaryotic 20S proteasome (0.02 μg) and suc-LLVY-AMC (20 μM) for the times indicated in FIG. 7. The chymotrypsin activity was measured and graphed in FIG. 7. Values are means from 4 independent experiments, and error bars represent standard deviations.
In the second experiment (−)-EGCG at 1 μM was pre-incubated with (SDS-pre) or without 0.01% SDS (no SDS) for 1 hour, followed by addition of eukaryotic 20S proteasome (0.02 μg) and suc-LLVY-AMC (20 μM). “SDS-post” represents the same treatment as “no SDS” except 0.01% SDS was added 1 hour after addition of the proteasome, (−)-EGCG and the substrate. AMC liberation was measured by fluorescence at each indicated time point and the percentage of chymotrypsin activity was determined. Values are means from 4 independent experiments, and error bars represent standard deviations.

[4] = tested on: LNCaP cells; assay: Western blot of proteasome target proteins in LNCaP cells; format: cell-based, human; details: 50 μM, 3 to 12 hours
Description: Cell Culture, Cell Extract Preparation, and Western Blot Assay. Human leukemia Jurkat T and prostate cancer LNCaP cells were cultured in RPMI 1640 medium supplemented with 10% fetal calf serum, 100 units/ml of penicillin, and 100 μg/ml streptomycin. Human immortalized, non-transformed NK cells (YT cell line) (38) were cultured in RPMI 1640 supplemented with 1 mM MEM sodium pyruvate solution, 0.1 mM MEM non-essential amino acids solution, 10% fetal calf serum. 100 units/ml penicillin, and 100 μg/ml streptomycin. Normal (WI-38) and simian virus 40 (SV40)-transformed (VA-13) human fibroblasts were grown in Dulbecco's modified Eagle's medium supplemented with 10% fetal calf serum, 100 units/ml of penicillin and 100 μg/ml of streptomycin. All cells were maintained at 37° C. in a humidified incubator with an atmosphere of 5% CO2. A whole cell extract was prepared in accordance with An et al. (An, B. et al. Cell Death Differ, 1998, 5:1062-75). Briefly, cells were harvested, washed with PBS twice, and homogenized in a lysis buffer [50 mM Tris-HCl (pH 8.0), 5 mM EDTA, 150 mM NaCl, 0.5% NP-40, 0.5 mM phenylmethylsulfonyl fluoride, and 0.5 mM dithiothreitol] for 30 min at 4° C. Afterwards, lysates were centrifuged at 12,000×g for 15 min at 4° C., and the supernatants were collected as whole cell extracts. Equal amounts of protein extract (60 μg) were resolved by SDS-polyacrylamide gel electrophoresis and transferred to a nitrocellulose membrane using a Semi-Dry Transfer system (BIO-RAD, Hercules, Calif.). Jurkat T, LNCaP, or DU-145 cells were treated with various concentrations of synthetic or natural tea polyphenols for indicted hours. The enhanced chemiluminescence (ECL) Western blot analysis was then performed using specific antibodies to the proteins of interest (p^27kip, IκB-α, PARP, Bax or actin). The ratio of p27 or IκB-α to the corresponding actin was determined by scanning intensities of the protein bands.
To investigate whether (−)-EGCG-amide and (+)-EGCG-amide inhibit intact tumor cell proteasome activity, human prostate cancer LNCaP cells were treated with 25 μM of (−)- or (+)-EGCG-amide for up to 9 hours, followed by measurement of p27, IκB-α and Bax, three well-known proteasome target proteins (Pagano, M. et al. Science, 1995, 269:682-685; An, B. et al. Cell Death Differ, 1998, 5:1062-75; Sun, J. et al. Cancer Res, 2001, 61:1280-1284; Palombella, V. J. et al. Cell, 1994, 78:773-785; Thompson, J. E. et al. Cell, 1995, 80:573-582; Perkins, N. D. Trends Biochem Sci, 2000, 25:434-440; Chang, Y. C. et al. Cell Growth Differ, 1998, 9:79-84; Li, B. and Dou, Q. P. Proc Natl Acad Sci USA, 2000, 97:3850-3855; Nam, S. et al. Cancer Epidemiol Biomarkers Prey, 2001, 10:1083-1088). In this experiment (−)-EGCG and (+)-EGCG were used as positive controls.
Having determined that the synthetic GTP-1 to −5 analogs are able to inhibit the proteasomal chymotrypsin-like activity in vitro (FIG. 8), these compounds were investigated for their potency in inhibiting intact tumor cellular proteasome activity. To do so, human prostate cancer LNCaP cells were treated with one of these compounds for the indicated hours, followed by measuring levels of proteasome target proteins, p27, IκB-α, and Bax, and polyubiquitinated proteins.

[5] = target: T2, purified 20S proteasome (UniProt G1T4Q9); assay: Inhibition of chymotrypsin-like activity of purified 20S proteasome (source not stated); format: biochemical; details: chymotrypsin-like activity of purified 20S proteasome
T2 construct: IC50; other: chymotrypsin-like activity of purified 20S proteasome
Description: as §2

[6] = tested on: Jurkat T cells; assay: Flow cytometry cell cycle analysis, Jurkat T cells; format: cell-based, human; details: 24 hours
Description: as §1
Previous studies have shown that overexpression of p27 (Pagano, M. et al. Science, 1995, 269:682-685), IκB-α (Verma, I. M. et al. Genes Dev, 1995, 9:2723-2735), and Bax (Li, B. and Dou, Q. P. Proc Natl Acad Sci USA, 2000, 97:3850-3855) results in G1 arrest or apoptosis. If increased levels of these proteasome target proteins by the synthetic EGCG analogs are functional, growth inhibition of tumor cells would be expected. […] The G1 population was indeed increased by 26% and 9% by treatment with GTP-4 and GTP-5, respectively (FIG. 11).

[7] = tested on: purified 20S proteasome; assay: Inhibition of chymotrypsin-like activity of purified 20S proteasome (source not stated); format: biochemical
Description: as §2

Molecule	levels of Bax protein [4]	levels of proteasome target proteins (p27, IκB-α) [4]	pIC50 [5]	increase of G1 population [6] [%]	increase of sub-G1 DNA cell population [6] [%]	inhibition of the proteasome (in words) [7]	also measured
O=C(OC1Cc2c(O)cc(O)cc2OC1c1cc(O)c(O)c(O)c1)c1cc(O)c(O)c(O)c1 (single isomer, unassigned; (-)) [(−)-GCG, reference compound]	–	–	–	–	–	–	increase of G1 population (G1 arrest) [1]: ~14%; inhibition of colony formation [2]: 99%; pIC50 [3]: 6.21
O=C(O[C@H]1Cc2ccccc2C[C@H]1OC(=O)c1cc(O)c(O)c(O)c1)c1cc(O)c(O)c(O)c1 [GTP-4]	increased only at 12 hours	significant increase in levels of p27 and IκB-α	6.47	26	~15	–	–
O=C(O[C@H]1Cc2cc(O)ccc2C[C@H]1OC(=O)c1cc(O)c(O)c(O)c1)c1cc(O)c(O)c(O)c1 [GTP-5]	increased only at 12 hours	significant increase in levels of p27 and IκB-α	6.14	9	~15	–	–
COC(C)=O [methyl acetate, reference compound]	–	–	–	–	–	cannot inhibit the proteasome	–
COC(=O)c1cc(O)c(O)c(O)c1 [methyl gallate, reference compound]	–	–	–	–	–	cannot inhibit the proteasome	–
benzyl hydroxybenzoate [reference compound]	–	–	–	–	–	cannot inhibit the proteasome	–
